Tests used:
M14 = test: Growth inhibition of human M14 cells incubated for 48 hrs by sulforhodamine B assay; assay type: functional, cell-based; details: M14, 48 h
SK-MEL-5 = test: Growth inhibition of human SK-MEL-5 cells incubated for 48 hrs by sulforhodamine B assay; assay type: functional, cell-based; details: SK-MEL-5, 48 h
MOLT-4 = test: Growth inhibition of human MOLT4 cells assessed as cell growth at 100 uM incubated for 48 hrs by sulforhodamine B assay relative to control; assay type: functional; details: MOLT-4, 48 h, read-out: Activity
NCI-H460 = test: Growth inhibition of human NCI-H460 cells assessed as cell growth at 1 uM incubated for 48 hrs by sulforhodamine B assay relative to control; assay type: functional; details: NCI-H460, 48 h, read-out: Activity
ACHN = test: Growth inhibition of human ACHN cells assessed as cell growth at 1 uM incubated for 48 hrs by sulforhodamine B assay relative to control; assay type: functional; details: read-out: Activity
SK-OV-3 = test: Growth inhibition of human SKOV3 cells assessed as cell growth at 100 uM incubated for 48 hrs by sulforhodamine B assay relative to control; assay type: functional; details: SK-OV-3, 48 h, read-out: Activity
COLO 205 = test: Growth inhibition of human COLO205 cells assessed as cell growth at 0.01 uM incubated for 48 hrs by sulforhodamine B assay relative to control; assay type: functional; details: COLO 205, 48 h, read-out: Activity
OVCAR-8 = test: Growth inhibition of human OVCAR8 cells assessed as cell growth at 1 uM incubated for 48 hrs by sulforhodamine B assay relative to control; assay type: functional; details: OVCAR-8, 48 h, read-out: Activity
LOX IMVI [1] = test: Growth inhibition of human LOXIMVI cells assessed as cell growth at 100 uM incubated for 48 hrs by sulforhodamine B assay relative to control; assay type: functional; details: read-out: Activity
HL-60(TB) [2] = test: Growth inhibition of human HL-60(TB) cells assessed as cell growth at 100 uM incubated for 48 hrs by sulforhodamine B assay relative to control; assay type: functional; details: HL-60, 48 h, read-out: Activity
UACC-62 = test: Growth inhibition of human UACC62 cells assessed as cell growth at 0.01 uM incubated for 48 hrs by sulforhodamine B assay relative to control; assay type: functional; details: UACC-62, 48 h, read-out: Activity
MDA-MB-435 [3] = test: Growth inhibition of human MDA-MB-435 cells incubated for 48 hrs by sulforhodamine B assay; assay type: functional, cell-based; details: MDA-MB-435, 48 h
NCI/ADR-RES = test: Growth inhibition of human NCI/ADR-RES cells assessed as cell growth at 0.01 uM incubated for 48 hrs by sulforhodamine B assay relative to control; assay type: functional; details: read-out: Activity
786-0 = test: Growth inhibition of human 786-0 cells assessed as cell growth at 0.1 uM incubated for 48 hrs by sulforhodamine B assay relative to control; assay type: functional; details: 786-0, 48 h, read-out: Activity
HCT-116 = test: Growth inhibition of human HCT116 cells assessed as cell growth at 100 uM incubated for 48 hrs by sulforhodamine B assay relative to control; assay type: functional; details: HCT-116, 48 h, read-out: Activity
SK-MEL-28 = test: Growth inhibition of human SK-MEL-28 cells assessed as cell growth at 0.01 uM incubated for 48 hrs by sulforhodamine B assay relative to control; assay type: functional; details: SK-MEL-28, 48 h, read-out: Activity
SK-MEL-2 [4] = test: Growth inhibition of human SK-MEL-2 cells assessed as cell growth at 10 uM incubated for 48 hrs by sulforhodamine B assay relative to control; assay type: functional; details: SK-MEL-2, 48 h, read-out: Activity
OVCAR-4 = test: Growth inhibition of human OVCAR4 cells assessed as cell growth at 0.01 uM incubated for 48 hrs by sulforhodamine B assay relative to control; assay type: functional; details: OVCAR-4, 48 h, read-out: Activity
SK-MEL-2 [5] = test: Growth inhibition of human SK-MEL-2 cells assessed as cell growth at 1 uM incubated for 48 hrs by sulforhodamine B assay relative to control; assay type: functional; details: SK-MEL-2, 48 h, read-out: Activity
Hs-578T = test: Growth inhibition of human Hs578T cells assessed as cell growth at 0.01 uM incubated for 48 hrs by sulforhodamine B assay relative to control; assay type: functional; details: read-out: Activity
HL-60(TB) [6] = test: Growth inhibition of human HL-60(TB) cells assessed as cell growth at 0.01 uM incubated for 48 hrs by sulforhodamine B assay relative to control; assay type: functional; details: HL-60, 48 h, read-out: Activity
RPMI-8226 = test: Growth inhibition of human RPMI8226 cells assessed as cell growth at 0.01 uM incubated for 48 hrs by sulforhodamine B assay relative to control; assay type: functional; details: RPMI-8226, 48 h, read-out: Activity
U-251 = test: Growth inhibition of human U251 cells assessed as cell growth at 1 uM incubated for 48 hrs by sulforhodamine B assay relative to control; assay type: functional; details: U-251, 48 h, read-out: Activity
OVCAR-5 = test: Growth inhibition of human OVCAR5 cells assessed as cell growth at 0.01 uM incubated for 48 hrs by sulforhodamine B assay relative to control; assay type: functional; details: OVCAR-5, 48 h, read-out: Activity
SW-620 = test: Growth inhibition of human SW620 cells assessed as cell growth at 1 uM incubated for 48 hrs by sulforhodamine B assay relative to control; assay type: functional; details: SW-620, 48 h, read-out: Activity
IGROV-1 = test: Growth inhibition of human IGROV1 cells assessed as cell growth at 100 uM incubated for 48 hrs by sulforhodamine B assay relative to control; assay type: functional; details: IGROV-1, 48 h, read-out: Activity
LOX IMVI [7] = test: Growth inhibition of human LOXIMVI cells assessed as cell growth at 0.01 uM incubated for 48 hrs by sulforhodamine B assay relative to control; assay type: functional; details: read-out: Activity
UO-31 = test: Growth inhibition of human UO31 cells assessed as cell growth at 0.01 uM incubated for 48 hrs by sulforhodamine B assay relative to control; assay type: functional; details: UO-31, 48 h, read-out: Activity
HOP-62 = test: Growth inhibition of human HOP62 cells assessed as cell growth at 0.1 uM incubated for 48 hrs by sulforhodamine B assay relative to control; assay type: functional; details: HOP-62, 48 h, read-out: Activity
MDA-MB-435 [8] = test: Growth inhibition of human MDA-MB-435 cells assessed as cell growth at 0.01 uM incubated for 48 hrs by sulforhodamine B assay relative to control; assay type: functional; details: MDA-MB-435, 48 h, read-out: Activity
NCI-H522 = test: Growth inhibition of human NCI-H522 cells assessed as cell growth at 100 uM incubated for 48 hrs by sulforhodamine B assay relative to control; assay type: functional; details: NCI-H522, 48 h, read-out: Activity
[9] = read-out: LC50 (the source's name)
[10] = read-out: pLC50 (the source's name) (converted)

COc1cc(Cl)cc(-c2nn(-c3cccc(NC(=O)Nc4ccc(Cl)c(C(F)(F)F)c4)c3)cc2-c2ccncc2)c1
GI50 (M14; read-out: GI50): 1.33 µM
CC50 (M14; [9]): 0.05 µM
TGI (M14; read-out: TGI): 34.7 µM
GI50 (M14; read-out: pGI50 (converted)): 1.32 µM
CC50 (M14; [10]): 9.12 µM
TGI (M14; read-out: pTGI (converted)): 8.51 µM
GI50 (SK-MEL-5; read-out: GI50): 1.54 µM
CC50 (SK-MEL-5; [9]): 5.58 µM
TGI (SK-MEL-5; read-out: TGI): 29.3 µM
GI50 (SK-MEL-5; read-out: pGI50 (converted)): 1.55 µM
CC50 (SK-MEL-5; [10]): 5.62 µM
TGI (SK-MEL-5; read-out: pTGI (converted)): 8.32 µM
growth at 100 µM (MOLT-4): -28%
growth at 1 µM (NCI-H460): 43%
growth at 1 µM (ACHN): 45%
growth at 100 µM (SK-OV-3): -39%
growth at 0.01 µM (COLO 205): 97%
growth at 1 µM (OVCAR-8): 43%
growth at 100 µM (LOX IMVI [1]): -34%
growth at 100 µM (HL-60(TB) [2]): -22%
growth at 0.01 µM (UACC-62): 95%
GI50 (MDA-MB-435 [3]; read-out: GI50): 1.75 µM
LC50 (MDA-MB-435 [3]; read-out: LC50): > 100 µM
TGI (MDA-MB-435 [3]; read-out: TGI): 43.5 µM
GI50 (MDA-MB-435 [3]; read-out: pGI50 (converted)): 1.74 µM
LC50 (MDA-MB-435 [3]; read-out: pLC50 (converted)): > 100 µM
TGI (MDA-MB-435 [3]; read-out: pTGI (converted)): 3.47 µM
growth at 0.01 µM (NCI/ADR-RES): 98%
growth at 0.1 µM (786-0): 96%
growth at 100 µM (HCT-116): -94%
growth at 0.01 µM (SK-MEL-28): 98%
growth at 10 µM (SK-MEL-2 [4]): -34%
growth at 0.01 µM (OVCAR-4): 99%
growth at 1 µM (SK-MEL-2 [5]): 84%
growth at 0.01 µM (Hs-578T): 95%
growth at 0.01 µM (HL-60(TB) [6]): 96%
growth at 0.01 µM (RPMI-8226): 97%
growth at 1 µM (U-251): 43%
growth at 0.01 µM (OVCAR-5): 54%
growth at 1 µM (SW-620): 63%
growth at 100 µM (IGROV-1): -16%
growth at 0.01 µM (LOX IMVI [7]): 98%
growth at 0.01 µM (UO-31): 91%
growth at 0.1 µM (HOP-62): 104%
growth at 0.01 µM (MDA-MB-435 [8]): 95%
growth at 100 µM (NCI-H522): -66%

O=C(Nc1cccc(-n2cc(-c3ccncc3)c(-c3cc(O)cc(Cl)c3)n2)c1)Nc1ccc(Cl)c(C(F)(F)F)c1
GI50 (M14; read-out: GI50): 1.72 µM
CC50 (M14; [9]): 55.8 µM
TGI (M14; read-out: TGI): 38.8 µM
GI50 (M14; read-out: pGI50 (converted)): 1.7 µM
CC50 (M14; [10]): 8.71 µM
TGI (M14; read-out: pTGI (converted)): 3.89 µM
GI50 (SK-MEL-5; read-out: GI50): 1.59 µM
CC50 (SK-MEL-5; [9]): 51.5 µM
TGI (SK-MEL-5; read-out: TGI): 32.3 µM
GI50 (SK-MEL-5; read-out: pGI50 (converted)): 1.7 µM
CC50 (SK-MEL-5; [10]): 6.17 µM
TGI (SK-MEL-5; read-out: pTGI (converted)): 3.24 µM
growth at 100 µM (MOLT-4): -39%
growth at 1 µM (NCI-H460): 96%
growth at 1 µM (ACHN): 92%
growth at 100 µM (SK-OV-3): -15%
growth at 0.01 µM (COLO 205): 102%
growth at 1 µM (OVCAR-8): 99%
growth at 100 µM (LOX IMVI [1]): -89%
growth at 100 µM (HL-60(TB) [2]): -15%
growth at 0.01 µM (UACC-62): 104%
GI50 (MDA-MB-435 [3]; read-out: GI50): 1.73 µM
LC50 (MDA-MB-435 [3]; read-out: LC50): 55.2 µM
TGI (MDA-MB-435 [3]; read-out: TGI): 30 µM
GI50 (MDA-MB-435 [3]; read-out: pGI50 (converted)): 1.78 µM
LC50 (MDA-MB-435 [3]; read-out: pLC50 (converted)): 8.51 µM
TGI (MDA-MB-435 [3]; read-out: pTGI (converted)): 3.89 µM
growth at 0.01 µM (NCI/ADR-RES): 96%
growth at 0.1 µM (786-0): 95%
growth at 100 µM (HCT-116): -57%
growth at 0.01 µM (SK-MEL-28): 97%
growth at 10 µM (SK-MEL-2 [4]): -38%
growth at 0.01 µM (OVCAR-4): 99%
growth at 1 µM (SK-MEL-2 [5]): 104%
growth at 0.01 µM (Hs-578T): 95%
growth at 0.01 µM (HL-60(TB) [6]): 95%
growth at 0.01 µM (RPMI-8226): 101%
growth at 1 µM (U-251): 56%
growth at 0.01 µM (OVCAR-5): 98%
growth at 1 µM (SW-620): 101%
growth at 100 µM (IGROV-1): -41%
growth at 0.01 µM (LOX IMVI [7]): 90%
growth at 0.01 µM (UO-31): 93%
growth at 0.1 µM (HOP-62): 97%
growth at 0.01 µM (MDA-MB-435 [8]): 97%
growth at 100 µM (NCI-H522): -95%

Reference: ChEMBL document CHEMBL4308841, “Synthesis, in vitro antiproliferative activity, and kinase inhibitory effects of pyrazole-containing diarylureas and diarylamides” (Eur J Med Chem, 2018)
